Type in all cases: in vivo, human
Data set [1] has as its system healthy male volunteers. The data set is described as follows: Phase I clinical trial, tolerability and safety. The protocol: (§1) This clinical trial has been performed to assess the tolerability, safety and reduction of different parameters, including alkaline phosphatase of once-a-day administrations of oral doses of elafibranor (ELA) in […]. This was a phase I, single-center, double-blind, placebo-controlled, randomised, ascending multiple-dose study in healthy male volunteers. Doses of 40 mg or 60 mg once-a-day during 14 days were tested.
(§2) Thirty 19-40 years old Caucasian male volunteers were included: 9 for each treatment group and 12 for the placebo group.
(§3) The compound used was ELA, supplied in hard gelatin capsules dosed at 10 mg. Dose per administration was of 40 mg or 60 mg. Administration was repeated once-a-day, with an oral administration around 8 a.m. with 200 mL tap water, in sitting position, in fasting conditions, from day 1 to day 14. Matching placebo was presented as identical capsules.

The test system of data set [2] is total bilirubin level. Put plainly: Phase I clinical trial, assessment of bilirubin level. Particulars: for Measure of total bilirubin Day 15 change from the baseline: fasting, n=9.
From the text: (§4) Patients with clinical PSC have elevated alkaline phosphatase (ALP) and bilirubin levels. […] Some studies underline also elevated levels of bilirubin (Denau, M.R. et al., The Natural History of Primary Sclerosing Cholangitis in 781 Children: A Multicenter, International Collaboration. Hepatology (2017), Vol. 66, N° 2 pp518-527).
as §1, §2, §3

For data set [3], the system named is alkaline phosphatase (ALP) level. Put plainly: Phase I clinical trial, assessment of ALP level. Particulars: for Measure of ALP Day 15 change from the baseline: fasting, n=9, baseline day 1.
From the text: as §4, §1, §2, §3
Alkaline phosphatase level was assessed at baseline (day 1) and day 15.

Setting [4] is: ELA 40 mg/day oral once-a-day for 14 days.
[5] abbreviates: ELA 60 mg/day oral once-a-day for 14 days.

Experimental findings from US20230165821A1, “ELAFIBRANOR FOR THE TREATMENT OF PRIMARY SCLEROSING CHOLANGITIS” (Genfit, priority 2020, published 2023) are described below.

Entries after “also recorded” stand apart in the source; their conditions may differ.

With `CSc1ccc(C(=O)C=Cc2cc(C)c(OC(C)(C)C(=O)O)c(C)c2)cc1` [ELA, 2-(2,6-dimethyl-4-{3-[4-(methylsulfanyl)phenyl]-3-oxopropen-1-yl}phenoxy)-2-methylpropanoic acid], the Serious adverse events entry in data set [1] (40 mg or 60 mg once-a-day, 14 days, oral) is given as “No serious adverse events were reported”. Also, in data set [1] (repeated administration at either dose (40 mg or 60 mg), healthy volunteers), the Clinical tolerance result is reported as “good clinical tolerance”. The figures for the “Measure of total bilirubin Day 15 change from the baseline” value in data set [2] (setting [4]) and in data set [2] (setting [5]) were -2.07 and -2.46, respectively. Moreover, the “Total bilirubin levels compared to placebo group” value in data set [2] (both doses (40 mg and 60 mg), once-a-day, 14 days) is listed as “improved total bilirubin levels compared to placebo group”. For the same molecule, the results for the “Measure of ALP Day 15 change from the baseline” value in data set [3] (setting [4]) and in data set [3] (setting [5]) were -8.3 and -20.7, respectively. The “Alkaline phosphatase levels compared to placebo group” value in data set [3] (both doses (40 mg and 60 mg), once-a-day, 14 days, listed as elafibranor) is given as “improved alkaline phosphatase levels compared to placebo group; also recorded: decreased mean ALP compared with placebo”.
